Measurements: patent publication US8470807B2, “Antioxidant” (Morinaga Milk Industry Co., Ltd., priority 2008, dated 2013)

Key:
ApoE gene-deficient mice [1] = assay: Inhibition of lipid peroxide formation in blood (serum TBARS/MDA) in ApoE gene-deficient mice; assay type: in vivo, mouse; conditions: 30 μg per day; for Amount of lipid peroxide in blood (MDA concentration): serum, 14 days after start of administration, oral once a day, high-cholesterol diet
Description: The actions of inhibiting formation of a lipid peroxide of various test samples including the antioxidant of the present invention can be evaluated by using, as an index, the amount of a thiobarbituric acid (TBA) reactive substance (TBARS), for example. Specifically, it may be defined that the larger the amount of the TBARS, the larger the amount of a lipid peroxide formed.
Examples of the TEARS include malondialdehyde (MDA) which reacts with TBA under high-temperature and acidic conditions and is a natural by-product of a lipid peroxidation. An MDA-TBA adduct can be detected by measurement of an absorbance at 530 to 540 nm to perform colorimetric measurement of MDA.
Also, the action of inhibiting formation of a lipid peroxide of a test sample can be evaluated using ApoE gene-deficient mice, which are often used as model animals which develop arteriosclerosis by hypercholesterolemia (hyper-LDL-cholesterolemia) (for example, see Reference Document 1: “Saibokogaku (Cell Engineering),” Extra Issue, “Medical Experiment Manual” series, Strategy for Study of Arteriosclerosis+Hyperlipidemia, Shujunsha Co., 1st edition, 1st impression, published on Apr. 1, 1996, pp. 441-443).
Further, in the model mice, the lipid peroxide level is higher than that of normal mice, and formation of atherosclerotic lesions (plagues) in the artery is observed with time. Therefore, the action of inhibiting formation of a lipid peroxide of a test sample can be evaluated by administering the test sample to the model mice and measuring a lipid peroxide in blood of the model mice.
Those samples were separately dissolved in propylene glycol, and diluted with distilled water so as to obtain test solutions with the concentration of each compound of 30 μg/ml, and the solutions were used for a test. Note that physiological saline was used as a negative sample.
(§1) Six-week-old male ApoE gene-deficient mice (purchased from Japan SLC, Inc.) were preliminarily fed with a high-cholesterol diet (manufactured by Research Diets, Inc.) for 2 weeks and divided into groups each of 15 mice.
To mice of each group, the test solution including the test samples 1 to 6, control sample, or negative sample was separately administered orally once a day for […] using medical probes in an amount of 1 ml per 25 g of mouse body weight. At an early period after the start of administration (14 days after the start of administration), blood was collected from the tail vein of each mouse, and serum was separated. Then, the amount of TBARS was measured using OxiSelect TBARS Assay Kit (manufactured by […]). Meanwhile, as a control, blood was collected from each normal mouse in the same manner as above.

ApoE gene-deficient mice [2] = assay: Number of atherosclerotic lesions (plaques) in thoracic aorta of ApoE gene-deficient mice; assay type: in vivo, mouse; conditions: 40 days after start, oral once a day for 39 consecutive days; for Number of plaques formed in thoracic aorta: 1 ml of 30 μg/ml per 25 g body weight, Oil red staining
Description: In addition, it is generally known that a primary lesion of arteriosclerosis is caused by oxidized LDL. Therefore, it is also possible to evaluate the action of reducing a risk of arteriosclerosis through inhibiting formation of a lipid peroxide of the test sample by counting the number of atherosclerotic lesions (plaques) in the artery of each model mouse treated with the test sample.
In Example 2, a cyclolanostane compound, a lophenol compound, and a mixture of the cyclolanostane compound and the lophenol compound were each evaluated on the effect of reducing a risk of arteriosclerosis through the effect of inhibiting a lipid peroxide by counting the number of atherosclerotic lesions (plaques) in the artery using known arteriosclerosis model animals, ApoE gene-deficient mice.
Test samples 1 to 6, a control sample, and a negative sample were prepared in the same way as in Example 1 above and were each used for a test.
as §1
To mice of each group, the sample solution including the test samples, control sample, or negative sample was separately administered orally once a day for 39 consecutive days using medical probes in an amount of 1 ml per 25 g of mouse body weight. Forty days after the start of administration, the thoracic aorta part was fixed with formalin and stained with Oil red, and the number of plaques was counted.

Structure (SMILES)	effect of inhibiting formation of a lipid peroxide in blood compared with the negative sample (ApoE gene-deficient mice [1]; serum TBARS, 14 days after start of oral administration)	Amount of lipid peroxide in blood (MDA concentration) (ApoE gene-deficient mice [1]) [µM]	plaque formation compared with the negative sample (ApoE gene-deficient mice [2])	Number of plaques formed in thoracic aorta (ApoE gene-deficient mice [2])
CC[C@H](C)C(=O)O[C@H]1C[C@H](O)C=C2C=C[C@H](C)[C@H](CC[C@@H](O)C[C@@H](O)CC(=O)[O-])[C@H]21.[Na+] [Control sample, reference compound]	a significant decrease in amount of a lipid peroxide in blood was not observed	0.93 ± 0.05	no significant difference	10.6 ± 3.2
CC(C)CCCC(C)C1CCC2(C)C3CCC4C(C)(C)C(O)CCC45CC35CCC12C (centres unmarked) [Test sample 1, 9,19-Cyclolanostan-3-ol]	–	0.62 ± 0.01	–	6.0 ± 0.7
C=C(CCC(C)C1CCC2(C)C3CCC4C(C)(C)C(O)CCC45CC35CCC12C)C(C)C (centres unmarked) [Test sample 2, 24-methylene-9,19-cyclolanostan-3-ol]	–	0.5 ± 0.19	–	5.6 ± 1.5
CC(C)CCC[C@@H](C)[C@H]1CC[C@H]2C3=CCC4C(C)C(O)CC[C@]4(C)[C@H]3CC[C@]12C (some centres unmarked) [Test sample 3, 4-Methylcholest-7-en-3-ol]	–	0.71 ± 0.08	–	6.2 ± 1.9
CC(C)C(C)CCC(C)C1CCC2C3=CCC4C(C)C(O)CCC4(C)C3CCC21C (centres unmarked) [Test sample 4, 4-methylergost-7-en-3-ol]	–	0.69 ± 0.05	–	5.0 ± 1.4
CCC(CCC(C)C1CCC2C3=CCC4C(C)C(O)CCC4(C)C3CCC21C)C(C)C (centres unmarked) [Test sample 5, 4-methylstigmast-7-en-3-ol]	–	0.72 ± 0.02	–	5.6 ± 2.1
